In this experiment the test system is FPGS^ko cells. Kind of experiment: Chemical complementation (nutrient supplementation) of FPGS mutants (FIG. 14). In kind it is cell-based, human. As to the method: The growth medium was supplemented with 1 and 2× essential amino acids (EAAs), and cells were grown for […] (A2-A3). Additionally, to check the growth behavior of the mutant in a different basal medium, regular DMEM and IMDM with 1×NEAAs were tested. To rescue the phenotype of FPGS^ko, 5-CHO-THF (1 mM) with sodium hypoxanthine (10 mM) and thymidine (1.6 mM) mixture (HT; Thermo Fisher Scientific) was exogenously applied to IMDM, respectively (A5, A6), and compared with the FPGS^ko cells (A1) and WT cells […] grown with only solvent as a control. […] All the experiments were carried out in triplicate and cell proliferation was measured using a Cellometer. The number of cells for each cell line is compared with the number of colonies for parental 293T cells. Error bars indicate means±SE (n=4). *P<0.05, **P<0.001.
Chemical complementation assays of FPGS mutants: Cells were maintained as monolayers in DMEM with Gluta-Max (Corning) supplemented with 10% FBS at 37° C. in a 5% CO2 atmosphere. To supplement the growth medium with amino acids, 1× and 2× doses of essential amino acids (Thermo Fisher Scientific) were added in the medium and the cells were grown as previously described for 5 days. […] All the experiments were carried out in triplicate, and cell proliferation was measured using a Cellometer Auto T4 Counting Chamber (Nexcelom Bioscience, Lawrence, MA, USA). […]

For the compound `Nc1nc2c(c(=O)[nH]1)N(C=O)[C@@H](CNc1ccc(C(=O)N[C@@H](CCC(=O)O)C(=O)O)cc1)CN2` [5-CHO-THF, 6S-5-formyl-5,6,7,8-tetrahydrofolic acid], for the setting “IMDM supplemented with 1 mM 5-CHO-THF and 1×NEAAs”, the “cell growth of FPGS^ko mutant” value is “substantial increases in cell growth”. The “growth rate of FPGS^ko mutant” value (IMDM with 1 mM 5-CHO-THF, 1×NEAAs, hypoxanthine (10 mM) and thymidine (1.6 mM)) is given as “almost full restoration of growth rate”.
